Measured values published in patent US6603046B1, “Bis-aromatic a,β-unsaturated ketones” (Lica Pharmaceuticals A/S, priority 1992, dated 2003).
≈ marks a conversion by molar mass, not a printed value.

Legend:
Test in all cases: organism not typed
L. wadsworthii = format: cell-based
L. domoffli = format: cell-based, L. dumoffii
L. longbeacheae = format: cell-based
L. bozemanii = format: cell-based

SMILES: C=CC(C)(C)c1cc(/C=C/C(=O)c2ccc(O)cc2)c(OC)cc1O [Licochalcone A, licochalcone A]
- MIC (L. wadsworthii): 2 µg/mL (≈ 5.91 µM)
- MIC (L. domoffli): 2 µg/mL (≈ 5.91 µM)
- MIC (L. longbeacheae): 1 µg/mL (≈ 2.96 µM)
- MIC (L. bozemanii): 2 µg/mL (≈ 5.91 µM)
